Laboratory results published in PMC10033279 (The Journal of Biological Chemistry, 2023).

Legend:
[1] = target: T1, NADH:quinone oxidoreductase (NQO), PA1024 (Pseudomonas aeruginosa, UniProt Q9I4V0); test: UV-visible absorption, FMN extraction by heat denaturation; format: binding; details: 10 mM Tris-Cl, 200 mM NaCl, 10% glycerol, pH 8.0, 25 °C; stoichiometry of co-purified FMN
T1 construct: full-length gene PA1024 in pET20b(+), expressed in E. coli Rosetta(DE3)pLysS, purified; EC 1.6.5.9

[2] = target: T1, NADH:quinone oxidoreductase (NQO), PA1024; test: anaerobic flavin reduction, absorption spectra; format: biochemical; details: 500 μM NADPH, pH 7, 25 °C, poor substrate
[3] = target: T1, NADH:quinone oxidoreductase (NQO), PA1024; test: steady-state NADH oxidation at […] nm, Michaelis-Menten fit; format: biochemical; details: 100 μM NADH fixed (not saturating; apparent; unreliable); 20 mM KPi, 200 mM NaCl, pH 7.0, 25 °C
[4] = target: T1, NADH:quinone oxidoreductase (NQO), PA1024; test: anaerobic stopped-flow flavin reduction at […] nm; format: biochemical; details: 20 mM KPi, 200 mM NaCl, pH 7.0, 25 °C, unreliable (upper-bound estimate, saturated at lowest NADH)
[5] = target: T1, NADH:quinone oxidoreductase (NQO), PA1024; test: steady-state NADH oxidation at […] nm, ping-pong global fit; format: biochemical; details: varied NADH; 20 mM KPi, 200 mM NaCl, pH 7.0, 25 °C; read-out: KBQ
[6] = target: NADH:quinone oxidoreductase (NQO), PA1024 (Pseudomonas aeruginosa, UniProt Q9I4V0, Q80E); details: read-out: KBQ; varied NADH; 20 mM KPi, 200 mM NaCl, pH 7.0, 25 °C
Sequence of NADH:quinone oxidoreductase (NQO), PA1024 (Pseudomonas aeruginosa, UniProt Q9I4V0, Q80E) (Q9I4V0 whole entry Q80E): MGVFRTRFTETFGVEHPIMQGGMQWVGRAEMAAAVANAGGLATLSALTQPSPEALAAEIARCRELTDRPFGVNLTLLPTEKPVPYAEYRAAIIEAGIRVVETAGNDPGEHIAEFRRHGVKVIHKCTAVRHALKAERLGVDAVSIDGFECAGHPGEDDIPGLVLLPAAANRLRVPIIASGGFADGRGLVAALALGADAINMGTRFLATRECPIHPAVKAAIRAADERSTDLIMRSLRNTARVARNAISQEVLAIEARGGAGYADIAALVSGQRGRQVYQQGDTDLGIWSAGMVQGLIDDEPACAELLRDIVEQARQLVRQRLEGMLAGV

[7] = target: NADH:quinone oxidoreductase (NQO), PA1024 (Pseudomonas aeruginosa, UniProt Q9I4V0, Q80G); details: read-out: KBQ; varied NADH; 20 mM KPi, 200 mM NaCl, pH 7.0, 25 °C
Sequence of NADH:quinone oxidoreductase (NQO), PA1024 (Pseudomonas aeruginosa, UniProt Q9I4V0, Q80G) (Q9I4V0 whole entry Q80G): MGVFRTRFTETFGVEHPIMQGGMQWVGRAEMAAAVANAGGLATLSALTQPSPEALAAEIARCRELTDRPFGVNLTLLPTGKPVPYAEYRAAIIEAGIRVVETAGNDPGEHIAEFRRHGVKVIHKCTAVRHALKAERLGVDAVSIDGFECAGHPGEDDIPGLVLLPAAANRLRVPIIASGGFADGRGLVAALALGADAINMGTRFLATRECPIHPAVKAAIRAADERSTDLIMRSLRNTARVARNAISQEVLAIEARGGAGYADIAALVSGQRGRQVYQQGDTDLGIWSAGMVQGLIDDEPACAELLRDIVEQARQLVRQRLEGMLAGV

T1 sequence (Q9I4V0 whole entry): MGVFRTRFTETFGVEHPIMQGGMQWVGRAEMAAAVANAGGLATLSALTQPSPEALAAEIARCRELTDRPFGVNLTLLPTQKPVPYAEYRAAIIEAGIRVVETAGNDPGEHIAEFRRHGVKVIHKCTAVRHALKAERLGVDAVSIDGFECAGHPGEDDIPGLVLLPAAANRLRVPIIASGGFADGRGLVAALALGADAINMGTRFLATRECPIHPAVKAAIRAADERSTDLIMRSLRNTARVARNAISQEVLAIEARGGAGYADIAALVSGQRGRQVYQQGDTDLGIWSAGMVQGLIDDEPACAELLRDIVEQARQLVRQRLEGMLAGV

Cc1cc2nc3c(=O)[nH]c(=O)nc-3n(C[C@H](O)[C@H](O)[C@H](O)COP(=O)(O)O)c2cc1C [FMN]
FMN/Protein [1]: 0.40

NC(=O)C1=CN([C@@H]2O[C@H](COP(=O)(O)OP(=O)(O)OC[C@H]3O[C@@H](n4cnc5c(N)ncnc54)[C@H](OP(=O)(O)O)[C@@H]3O)[C@@H](O)[C@H]2O)C=CC1 [NADPH]
% flavin reduction over 10 min at 500 μM [2]: ~ 10%

O=C1C=CC(=O)c2c(O)cccc21 [5-hydroxy-1,4-naphthoquinone]
^app(Km) [3]: 21 ± 1 µM

COC1=C(OC)C(=O)C(C)=CC1=O [2,3-dimethoxy-5-methyl-1,4-benzoquinone]
^app(Km) [3]: 60 ± 1 µM

NC(=O)C1=CN([C@@H]2O[C@H](COP(=O)(O)OP(=O)(O)OC[C@H]3O[C@@H](n4cnc5c(N)ncnc54)[C@H](O)[C@@H]3O)[C@@H](O)[C@H]2O)C=CC1 [NADH]
Kd (μM) [4]: <= ≤ 3 μM

CC1=CC(=O)C=CC1=O [2-methyl-1,4-benzoquinone]
^app(Km) [3]: 96 ± 1 µM

O=C1C=CC(=O)C=C1 [1,4-benzoquinone]
Km [5]: 30 ± 1 µM
Km [6]: 15 ± 1 µM
Km [7]: 20 ± 1 µM
